Like-named read-outs stand apart in the source and are kept apart here.
What was measured:
[1] = Bioassay of I-123-labeled compounds: organ distribution of activity 5 minutes after tail vein injection; format: in vivo, Female Sprague-Dawley rats; conditions: rat; for Percent Dose in Stomach / Ratio Brain/Blood / Ratio Heart/Blood: 5 min
Method: Bioassays were performed utilizing compounds from the foregoing examples labeled with I-123 in accordance with the method described in Example 18. Female Sprague-Dawley rats weighing approximately 150 g were anesthetized with sodium pentobarbital and were injected in a tail vein with from 0.05 to 1.0 mCi (in a volume of 0.2 to 0.5 ml) of the I-123-labeled compound. Two specimens were utilized for each test.
The animals were sacrificed at 5 minutes post injection, the tails discarded and the amount of activity in various organs determined. Each organ was counted at a standardized geometry with a thallium iodide-activated sodium iodide crystal scintillation counter adjusted for the 159 keV emission of I-123. The organs were also weighed to one thousandth of a gram and the activity calculated as a percent of administered dose per gram organ weight.
The ratio of brain-to-blood activity was calculated as a percent of administered dose per gram. The important determinations are the amount of activity in the brain and the brain/blood ratio. The amount of activity in the stomach is related to loss of the I-123-label. For comparative purposes, I-123 antipyrine was utilized as a standard.

[2] = I-123 labeled, cited from earlier work
[3] = in vivo, iv, Percent Dose/g. at 5 min., Blood
[4] = in vivo, iv, Percent Dose/g. at 5 min., Brain
[5] = in vivo, iv, Percent Dose/g. at 5 min., Heart
[6] = i.v., ratio of percent dose per gram
[7] = i.v., stomach activity is related to loss of the I-123 label

Compound | Percent Dose in Stomach ([1]; in vivo, iv) [Percent Dose] | Ratio Brain/Blood ([1]; in vivo, iv) | Ratio Heart/Blood ([1]; in vivo, iv) | tissue uptake at 5 min [1, 3] [%ID/g] | tissue uptake at 5 min [1, 4] [%ID/g] | tissue uptake at 5 min [1, 5] [%ID/g] | Ratio Brain/Blood [1, 6] | Ratio Heart/Blood [1, 6] | Percent Dose in Stomach [1, 7] [Percent Dose] | tissue uptake at 5 min ([1]; in vivo, iv, i.v. tail vein, 5 min post injection, blood, I-123 label, read-out: Percent Dose/g. at 5 min., Blood) [%ID/g] | tissue uptake at 5 min ([1]; in vivo, iv, i.v. tail vein, 5 min post injection, brain, I-123 label, read-out: Percent Dose/g. at 5 min., Brain) [%ID/g] | tissue uptake at 5 min ([1]; in vivo, iv, i.v. tail vein, 5 min post injection, heart, I-123 label, read-out: Percent Dose/g. at 5 min., Heart) [%ID/g] | concentration in the brain ([2]; literature) | in vivo deiodination ([2]; literature) | loss of the iodine label in the brain ([2]; prior art agent)
CNC(=O)c1ccccc1[123I] [Example 1, N-methyl-o-iodobenzamide] | 0.94 | 1.21 | 1.28 | 0.86 | 1.04 | 1.1 |  |  |  |  |  |  |  |  | 
NC(=O)c1ccccc1[123I] [Example 2, o-iodobenzamide] | 0.93 | 1.28 | 1.32 | 0.69 | 0.88 | 0.91 |  |  |  |  |  |  |  |  | 
CCCCCCNC(=O)c1ccccc1[123I] [Example 3, N-hexyl-o-iodobenzamide] | 0.86 | 1.05 | 1.21 | 0.56 | 0.59 | 1.04 |  |  |  |  |  |  |  |  | 
CCCCCCCCCCCCCCCCCCNC(=O)c1ccccc1[123I] [Example 5, N-octadecyl-o-iodobenzamide] | 0.20 | 0.10 | 0.92 | 0.91 | 0.09 | 0.84 |  |  |  |  |  |  |  |  | 
O=C(Nc1ccccc1)c1ccccc1[123I] [Example 6, o-iodobenzanilide] |  |  |  |  |  |  | 0.90 | 2.34 | 1.66 | 0.93 | 0.84 | 2.18 |  |  | 
Cc1c([123I])c(=O)n(-c2ccccc2)n1C [I^123 -iodoantipyrine, 4-iodoantipyrine] |  |  |  |  |  |  |  |  | 2.32 |  |  |  | suboptimal concentration in the brain | rapid in vivo deiodination | significant loss of the iodine label in the brain

Second part, led by results:

Percent Dose in Stomach ([1]; in vivo, iv) [Percent Dose] | Ratio Brain/Blood ([1]; in vivo, iv) | Ratio Heart/Blood ([1]; in vivo, iv) | tissue uptake at 5 min [1, 3] [%ID/g] | tissue uptake at 5 min [1, 4] [%ID/g] | tissue uptake at 5 min [1, 5] [%ID/g] | Compound | Ratio Brain/Blood [1, 6] | Ratio Heart/Blood [1, 6] | Percent Dose in Stomach [1, 7] [Percent Dose] | tissue uptake at 5 min ([1]; in vivo, iv, i.v. tail vein, 5 min post injection, blood, I-123 label, read-out: Percent Dose/g. at 5 min., Blood) [%ID/g] | tissue uptake at 5 min ([1]; in vivo, iv, i.v. tail vein, 5 min post injection, brain, I-123 label, read-out: Percent Dose/g. at 5 min., Brain) [%ID/g] | tissue uptake at 5 min ([1]; in vivo, iv, i.v. tail vein, 5 min post injection, heart, I-123 label, read-out: Percent Dose/g. at 5 min., Heart) [%ID/g] | concentration in the brain ([2]; literature) | in vivo deiodination ([2]; literature) | loss of the iodine label in the brain ([2]; prior art agent)
0.82 | 0.87 | 1.43 | 0.69 | 0.6 | 0.99 | Cc1cccc(C)c1NC(=O)c1ccccc1[123I] [Example 7, o-iodobenz-2,6-xylidide] |  |  |  |  |  |  |  |  | 
0.88 | 1.00 | 2.26 | 0.68 | 0.68 | 1.54 | O=C(NCc1ccccc1)c1ccccc1[123I] [Example 8, N-benzyl-o-iodobenzamide] |  |  |  |  |  |  |  |  | 
0.82 | 1.28 | 1.70 | 0.43 | 0.54 | 0.73 | O=C(NCCc1ccccc1)c1ccccc1[123I] [Example 9, N-phenethyl-o-iodobenzamide] |  |  |  |  |  |  |  |  | 
0.93 | 0.22 | 0.72 | 2.15 | 0.48 | 1.54 | CN(C)C(=O)c1ccccc1[123I] [Example 10, N, N-dimethyl-o-iodobenzamide] |  |  |  |  |  |  |  |  | 
0.83 | 1.10 | 1.31 | 0.84 | 0.92 | 0.96 | NC(=O)CNC(=O)c1ccccc1[123I] [Example 12, o-iodohippuramide] |  |  |  |  |  |  |  |  | 
1.10 | 0.20 | 0.55 | 1.99 | 0.39 | 1.09 | O=C(NNc1ccccc1)c1ccccc1[123I] [Example 13, o-iodobenzphenylhydrazide] |  |  |  |  |  |  |  |  | 
0.96 | 0.57 | 0.99 | 0.95 | 0.54 | 0.94 | O=C(NO)c1ccccc1[123I] [Example 14, o-iodobenzohydramic acid] |  |  |  |  |  |  |  |  | 

Reference: US4279887A, “Amides useful as brain imaging agents” (Medi-Physics, Inc., priority 1978, dated 1981)
